In patent US4155930A, “Ureylene phenylene anionic naphthalenesulfonic acids” (American Cyanamid Company, priority 1978, dated 1979):
Counter-ions that a name gives are not always drawn.

System: shunt pathway
Assay: Test Code 036 (C-Shunt inhibitor), lysis of fragile human erythrocytes in autologous serum, cobra venom factor activated
Type: biochemical
Design: key: N=Negative (no activity)
Details: serial two-fold dilution assay; higher well number indicates higher activity; N = negative
Description: An active inhibitor protects C2 from C1 and C4; (ii) Test Code 035 (C3-C9 inhibitor)--This test determines the ability of the late components of human complement (C3-C9) to lyse EAC 142 in the presence of appropriate dilutions of the test compound. An active inhibitor products EAC 142 from lysis by human C3-C9; (iii) Test Code 036 (C-Shunt inhibitor)--In this test human erythrocytes rendered fragile are lysed in autologous serum via the shunt pathway activated by cobra venom factor in the presence of appropriate dilutions of the test compound. Inhibition of the shunt pathway results in failure of lysis; (iv) Forssman Vasculitis Test--Here, the well known complement dependent lesion, Forssman vasculitis, is produced in guinea pigs by intradermal injection of rabbit anti-Forssman antiserum. The lesion is measured in terms of diameter, edema and hemorrhage and the extent to which a combined index of these is inhibited by prior intraperitoneal injection of the test compound at 200 mg/kg is then reported, unless otherwise stated; (v) Forssman Shock Test--Lethal shock is produced in guinea pigs by an i.v. injection of anti-Forssman antiserum and the harmonic mean death time of treated guinea pigs is compared with that of simultaneous controls; (vi) Complement Level Reduction Test--In this test, the above dosed guinea pigs, or others, are bled for serum and the complement level is determined in undiluted serum by the capillary tube method of U.S. Pat. No. 3,876,376 and compared to undosed control guinea pigs; and (vii) Cap 50 Test--Here, appropriate amounts of the test compound are added to a pool of guinea pig serum in vitro, after which the undiluted serum capillary tube assay referred to above is run. The concentration of compound inhibiting 50% is reported.

Row | Compound | Shunt Inhibition 036* Wells
1 | Cc1ccc(S(=O)(=O)Nc2ccc(S(=O)(=O)[O-])c3cc(S(=O)(=O)[O-])cc(S(=O)(=O)[O-])c23)cc1NS(=O)(=O)c1cccc(NC(=O)Nc2cccc(S(=O)(=O)Nc3cc(S(=O)(=O)Nc4ccc(S(=O)(=O)[O-])c5cc(S(=O)(=O)[O-])cc(S(=O)(=O)[O-])c45)ccc3C)c2)c1.[Na+].[Na+].[Na+].[Na+].[Na+].[Na+] [8,8'-[Ureylenebis[(m-phenylenesulfonylimino)(4-methyl-3,1-phenylenesulfonyl)imino]]di-1,3,5-naphthalenetrisulfonic acid, hexasodium salt] | N
2 | O=C(Nc1cccc(S(=O)(=O)Nc2cccc(S(=O)(=O)Nc3cc(S(=O)(=O)O)cc4cc(S(=O)(=O)O)cc(S(=O)(=O)O)c34)c2)c1)Nc1cccc(S(=O)(=O)Nc2cccc(S(=O)(=O)Nc3cc(S(=O)(=O)O)cc4cc(S(=O)(=O)O)cc(S(=O)(=O)O)c34)c2)c1 [8,8'-[Ureylenebis[[(1,3-phenylenesulfonylimino)-1,3-phenylenesulfonyl]imino]]di-1,3,6-naphthalenetrisulfonic acid, hexasodium salt] | +1 Wells
3 | Cc1ccc(NC(=O)Nc2ccc(C)c(S(=O)(=O)Nc3ccc(C)c(S(=O)(=O)Nc4cc(S(=O)(=O)[O-])cc5cc(S(=O)(=O)[O-])cc(S(=O)(=O)[O-])c45)c3)c2)cc1S(=O)(=O)Nc1ccc(C)c(S(=O)(=O)Nc2cc(S(=O)(=O)[O-])cc3cc(S(=O)(=O)[O-])cc(S(=O)(=O)[O-])c23)c1.[Na+].[Na+].[Na+].[Na+].[Na+].[Na+] [8,8'-[Ureylenebis[[[(6-methyl-3,1-phenylene)sulfonyl]imino]-[[(6-methyl-3,1-phenylene)sulfonyl]imino]]]di-1,3,6-naphthalenetrisulfonic acid, hexasodium salt] | N
